Laboratory results taken from patent publication US9260408B2, “Dihydroquinoline-2-one derivatives” (Hoffmann-La Roche Inc., priority 2011, dated 2016).
Structures can show the parent of a compound that is named as a salt.

Key:
human CYP11B1 = target: T1, human CYP11B1 (Homo sapiens, UniProt P15538); assay: G-402 cellular enzyme assay, human CYP11B1 (cortisol release, HTRF); format: cell-based; settings: G-402 cells expressing human CYP11B1; 1 μM Deoxycortisol
T1 construct: expressed in transfected cells
T1 sequence (P15538 25-503): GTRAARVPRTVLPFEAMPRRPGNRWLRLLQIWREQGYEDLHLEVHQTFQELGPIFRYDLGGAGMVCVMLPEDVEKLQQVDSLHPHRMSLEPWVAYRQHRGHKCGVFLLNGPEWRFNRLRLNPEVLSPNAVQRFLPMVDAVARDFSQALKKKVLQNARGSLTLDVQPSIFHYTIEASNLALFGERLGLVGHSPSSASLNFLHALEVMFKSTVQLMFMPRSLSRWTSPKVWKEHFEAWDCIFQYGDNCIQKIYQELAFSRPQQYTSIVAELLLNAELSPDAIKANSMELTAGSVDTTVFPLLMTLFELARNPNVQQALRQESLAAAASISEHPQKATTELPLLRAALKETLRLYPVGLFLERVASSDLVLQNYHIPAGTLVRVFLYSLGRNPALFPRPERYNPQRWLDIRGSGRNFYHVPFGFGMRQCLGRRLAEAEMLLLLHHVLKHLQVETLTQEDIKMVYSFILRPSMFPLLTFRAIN
In short: (§1)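 G-402 cells stably expressing human CYP11B2 or CYP11B1, in DMEM/F12 with 2.5% charcoal-treated FCS, were incubated 16 h with compound plus 1 μM deoxycorticosterone (CYP11B2) or 1 μM deoxycortisol (CYP11B1). Aldosterone or cortisol in the supernatant measured by HTRF; EC50 from a 4-parameter MMF fit.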

human CYP11B2 = target: T2, human CYP11B2 (Homo sapiens, UniProt P19099); assay: G-402 cellular enzyme assay, human CYP11B2 (aldosterone release, HTRF); format: cell-based; settings: G-402 cells expressing human CYP11B2; 1 μM Deoxycorticosterone
T2 construct: expressed in transfected cells
T2 sequence (P19099 25-503): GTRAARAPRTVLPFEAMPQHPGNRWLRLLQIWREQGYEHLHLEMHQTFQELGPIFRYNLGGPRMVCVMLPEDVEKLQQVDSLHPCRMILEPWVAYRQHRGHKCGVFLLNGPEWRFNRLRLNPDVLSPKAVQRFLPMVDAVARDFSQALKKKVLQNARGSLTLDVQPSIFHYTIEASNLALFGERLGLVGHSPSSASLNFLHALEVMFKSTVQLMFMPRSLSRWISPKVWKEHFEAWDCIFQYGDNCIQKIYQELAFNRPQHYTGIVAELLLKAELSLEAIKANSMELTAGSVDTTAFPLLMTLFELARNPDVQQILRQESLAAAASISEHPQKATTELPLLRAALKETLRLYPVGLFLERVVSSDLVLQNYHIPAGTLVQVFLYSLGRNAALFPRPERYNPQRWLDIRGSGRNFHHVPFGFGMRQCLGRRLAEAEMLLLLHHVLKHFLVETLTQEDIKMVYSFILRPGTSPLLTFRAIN
In short: as §1

| SMILES | EC50 (human CYP11B1) [nM] | EC50 (human CYP11B2) [nM] |
| --- | --- | --- |
| Cc1noc(C)c1C(=O)NCc1cncc(-c2ccc3c(c2)CCC(=O)N3)c1 [Example 141, 3,5-Dimethyl-isoxazole-4-carboxylic acid [5-(2-oxo-1,2,3,4-tetrahydro-quinolin-6-yl)-pyridin-3-ylmethyl]-amide] | 19900 | 856 |
| CN1C(=O)CCc2cc(-c3cncc(O[C@@H]4CCNC4)c3)ccc21 [Example 68, 1-Methyl-6-[5-((R)-pyrrolidin-3-yloxy)-pyridin-3-yl]-3,4-dihydro-1H-quinolin-2-one hydrochloride] | 33700 | 350 |
| Cc1oncc1C(=O)NCc1cncc(-c2ccc3c(c2)CCC(=O)N3C)c1 [Example 101] | 179 | 2 |
| CCS(=O)(=O)NCc1cncc(-c2ccc3c(c2)CCC(=O)N3C)c1 [Example 15] | 1200 | 19 |
| COc1cc(C(=O)NCc2cncc(-c3ccc4c(c3)CCC(=O)N4C)c2)on1 [Example 40, 3-Methoxy-isoxazole-5-carboxylic acid [5-(1-methyl-2-oxo-1,2,3,4-tetrahydro-quinolin-6-yl)-pyridin-3-ylmethyl]-amide] | 750 | 15 |
| CN1C(=O)CCc2cc(-c3cncc(O[C@H]4CCN(C(=O)OC(C)(C)C)C4)c3)ccc21 [Example 48, (S)-3-[5-(1-Methyl-2-oxo-1,2,3,4-tetrahydro-quinolin-6-yl)-pyridin-3-yloxy]-pyrrolidine-1-carboxylic acid tert-butyl ester] | 392 | 49 |
| Cn1c(=O)ccc2cc(-c3cncc(C4(N)CC4)c3)ccc21 [Example 262, 6-[5-(1-Amino-cyclopropyl)-pyridin-3-yl]-1-methyl-1H-quinolin-2-one] | 1820 | 84 |
| Cc1cccnc1C(=O)N(C)Cc1cncc(-c2ccc3c(c2)CCC(=O)N3C)c1 [Example 199, 3-Methyl-pyridine-2-carboxylic acid methyl-[5-(1-methyl-2-oxo-1,2,3,4-tetrahydro-quinolin-6-yl)-pyridin-3-ylmethyl]-amide] | 28 | 3 |
| CN1C(=O)CCc2cc(-c3cncc(CNC(=O)CC(F)(F)F)c3)ccc21 [Example 78] | 1140 | 121 |
| COC(=O)[C@@H]1CCCN1Cc1cncc(-c2ccc3c(c2)CCC(=O)N3C)c1 [Example 22] | 100 | 25 |
| CCS(=O)(=O)N1CCC[C@H](Oc2cncc(-c3ccc4c(c3)CCC(=O)N4C)c2)C1 [Example 160, 6-[5-((S)-1-Ethanesulfonyl-piperidin-3-yloxy)-pyridin-3-yl]-1-methyl-3,4-dihydro-1H-quinolin-2-one] | 716 | 113 |
| CCC(=O)N1CCC[C@H]1COc1cncc(-c2ccc3c(c2)CCC(=O)N3C)c1 [Example 106] | 2680 | 20 |
| CN1C(=O)CCc2cc(-c3cncc(O[C@@H]4CCN(C(=O)OC(C)(C)C)C4)c3)c(F)cc21 [Example 46, (R)-3-[5-(7-Fluoro-1-methyl-2-oxo-1,2,3,4-tetrahydro-quinolin-6-yl)-pyridin-3-yloxy]-pyrrolidine-1-carboxylic acid tert-butyl ester] | 298 | 5 |
| CCN(C(C)c1cncc(-c2ccc3c(c2)CCC(=O)N3C)c1)S(=O)(=O)CC (racemic) [Example 187, (rac)-Ethanesulfonic acid ethyl-{1-[5-(1-methyl-2-oxo-1,2,3,4-tetrahydro-quinolin-6-yl)-pyridin-3-yl]-ethyl}-amide] | 705 | 27 |
| CN1C(=O)CCc2cc(-c3cncc(CNC(=O)c4cncnc4)c3)ccc21 [Example 86] | 108 | 4 |
| CCS(=O)(=O)N1CC[C@@H](Oc2cncc(-c3ccc4c(c3)CCC(=O)N4C)c2)C1 [Example 169, 6-[5-((R)-1-Ethanesulfonyl-pyrrolidin-3-yloxy)-pyridin-3-yl]-1-methyl-3,4-dihydro-1H-quinolin-2-one] | 850 | 35 |
| CN1C(=O)CCc2cc(-c3cncc(O[C@H]4CCN(C(=O)c5cnn(C)c5)C4)c3)ccc21 [Example 255, 1-Methyl-6-{5-[(S)-1-(1-methyl-1H-pyrazole-4-carbonyl)-pyrrolidin-3-yloxy]-pyridin-3-yl}-3,4-dihydro-1H-quinolin-2-one] | 1320 | 13 |
| CC(C)[C@H](CO)Nc1cncc(-c2ccc3c(c2)CCC(=O)N3C)n1 [Example 31, 6-[6-((R)-1-Hydroxymethyl-2-methyl-propylamino)-pyrazin-2-yl]-1-methyl-3,4-dihydro-1H-quinolin-2-one] | > 3000 | 172 |
| CCS(=O)(=O)NCc1cncc(-c2cc3c4c(c2)CCN4C(=O)CC3)c1 [Example 234, Ethanesulfonic acid [5-(4-oxo-1,2,5,6-tetrahydro-4H-pyrrolo[3,2,1-ij]quinolin-8-yl)-pyridin-3-ylmethyl]-amide] | 2260 | 27 |
| CCC(=O)NC(C)c1cncc(-c2ccc3c(c2)CCC(=O)N3C)c1Cl (single isomer, unassigned) [Example 261, N-{(R or S)-1-[4-Chloro-5-(1-methyl-2-oxo-1,2,3,4-tetrahydro-quinolin-6-yl)-pyridin-3-yl]-ethyl}-propionamide] | 1220 | 62 |
| CN1C(=O)CCc2cc(-c3cncc(OC4CCN(C(=O)OC(C)(C)C)CC4)c3)ccc21 [Example 50, 4-[5-(1-Methyl-2-oxo-1,2,3,4-tetrahydro-quinolin-6-yl)-pyridin-3-yloxy]-piperidine-1-carboxylic acid tert-butyl ester] | 24 | 3 |
| CN1C(=O)CCc2cc(-c3cncc(OC[C@@H]4CCN4C(=O)C4CC4)c3)ccc21 [Example 91] | 3070 | 43 |
| CCC(=O)N1CCC(Oc2cncc(-c3ccc4c(c3)CCC(=O)N4C)c2)CC1 [Example 88] | 13 | 1 |
| CC(N)c1cncc(-c2ccc3c(c2)CCC(=O)N3C)c1Cl (single isomer, unassigned) [Example 250, 6-[5-((R or S)-1-Amino-ethyl)-4-chloro-pyridin-3-yl]-1-methyl-3,4-dihydro-1H-quinolin-2-one hydrochloride] | 1250 | 35 |
| CCC(=O)N1CC[C@H](Oc2cncc(-c3ccc4c(c3)CCC(=O)N4C)c2)C1 [Example 90] | 1500 | 11 |
| CN(Cc1cncc(-c2cc3c(cc2F)N(C)C(=O)CC3)c1)C(=O)c1ncccc1Cl [Example 200, 3-Chloro-pyridine-2-carboxylic acid [5-(7-fluoro-1-methyl-2-oxo-1,2,3,4-tetrahydro-quinolin-6-yl)-pyridin-3-ylmethyl]-methyl-amide] | 31 | 1 |
| CCS(=O)(=O)NC(C)c1cncc(-c2ccc3c(c2)CCC(=O)N3C)c1 (single isomer, unassigned) [Example 173, Ethanesulfonic acid {(R or S)-1-[5-(1-methyl-2-oxo-1,2,3,4-tetrahydro-quinolin-6-yl)-pyridin-3-yl]-ethyl}-amide] | 800 | 31 |
| Cc1c(-c2ccc3c(c2)CCC(=O)N3C)cncc1C(C)N (single isomer, unassigned) [Example 240, 6-[5-((R or S)-1-Amino-ethyl)-4-methyl-pyridin-3-yl]-1-methyl-3,4-dihydro-1H-quinolin-2-one hydrochloride] | 15000 | 250 |
| CN1C(=O)CCc2cc(-c3cncc(OCCNC(=O)c4ncccc4Cl)c3)c(F)cc21 [Example 244, 3-Chloro-pyridine-2-carboxylic acid {2-[5-(7-fluoro-1-methyl-2-oxo-1,2,3,4-tetrahydro-quinolin-6-yl)-pyridin-3-yloxy]-ethyl}-amide] | 75 | 2 |
| CCS(=O)(=O)NC(C)c1cncc(-c2cc3c(cc2F)N(C)C(=O)CC3)c1 (single isomer, unassigned) [Example 191, Ethanesulfonic acid {(S or R)-1-[5-(7-fluoro-1-methyl-2-oxo-1,2,3,4-tetrahydro-quinolin-6-yl)-pyridin-3-yl]-ethyl}-amide] | 777 | 10 |
